Data reported in ChEMBL document CHEMBL1150370, “Pestaloficiols A-E, bioactive cyclopropane derivatives from the plant endophytic fungus Pestalotiopsis fici” (Bioorg Med Chem, 2008).
Structures can show the parent of a compound that is named as a salt.

Assays:
[1] = system: Human immunodeficiency virus 1; assay: Antiviral activity against HIV1 in human C8116 cells assessed as reduction of p24 protein level after 4 days by ELISA; type: functional, organism-based; conditions: Human immunodeficiency virus 1, C8116, 96 h
[2] = Cytotoxicity against human C8116 cells after 4 days by MTT assay; type: cell-based

CC(C)(C)NC(=O)[C@@H]1CN(Cc2cccnc2)CCN1C[C@@H](O)C[C@@H](Cc1ccccc1)C(=O)N[C@H]1c2ccccc2C[C@H]1O [INDINAVIR SULFATE]
EC50 [1]: 0.00881 µM

CC1(C)CC(=O)C2=C(O1)[C@@]13C[C@@H]1C(C)(C)O[C@H]3[C@@H](O)C2 [PESTALOFICIOL A]
EC50 [1]: 26 µM | CC50 at 96 h [2]: > 200 µM

CC1(C)CC(=O)C2=C(O1)[C@]1(C[C@@H]1C(C)(C)O)[C@@H](O)[C@@H](O)C2 [PESTALOFICIOL B]
EC50 [1]: 26 µM | CC50 at 96 h [2]: > 200 µM

CC1(C)CC(=O)C2=C(O1)[C@@]1(C[C@H]1C(C)(C)O)[C@@H](O)[C@@H](O)C2 [PESTALOFICIOL D]
EC50 [1]: 26 µM | CC50 at 96 h [2]: > 200 µM
